# Source: PubChem BioAssay AID1963840 (Molecular Pharmacology Branch, DTP, NCI, 2024)
# Test system: 695427-040-R-J1-PDC complex spheroid viability
# Assay: Anticancer human tumor 695427-040-R-J1-PDC patient-derived colon adenocarcinoma cell line growth inhibition [POLQ]
# Conditions: for IC50: curve of first compound; for viability, T/C: stronger effect = lower value
# Procedure, shortened: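 Complex spheroid viability model combining PDC tumour cells with endothelial (HUVEC) and MSC stromal cells. Novobiocin, ART-558 or RP6685 were tested singly and in combination with standard and investigational anticancer drugs. Each was titrated in half-log steps from near clinical Cmax, or from 10 microM where Cmax was unknown.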
# [1] = second compound 0.0316 µM, first compound 0.0316 µM
# [2] = second compound 0.0316 µM, first compound 0.1 µM
# [3] = second compound 0.0316 µM, first compound 0.316 µM
# [4] = second compound 0.0316 µM, first compound 1 µM
# [5] = second compound 0.0316 µM, first compound 3.16 µM
# [6] = second compound 0.0316 µM, first compound 10 µM
# [7] = second compound 0.1 µM, first compound 0.0316 µM
# [8] = second compound 0.1 µM, first compound 0.1 µM
# [9] = second compound 0.1 µM, first compound 0.316 µM
# [10] = second compound 0.1 µM, first compound 1 µM
# [11] = second compound 0.1 µM, first compound 3.16 µM
# [12] = second compound 0.1 µM, first compound 10 µM
# [13] = second compound 0.316 µM, first compound 0.0316 µM
# [14] = second compound 0.316 µM, first compound 0.1 µM
# [15] = second compound 0.316 µM, first compound 0.316 µM
# [16] = second compound 0.316 µM, first compound 1 µM
# [17] = second compound 0.316 µM, first compound 3.16 µM
# [18] = second compound 0.316 µM, first compound 10 µM
# [19] = second compound 1 µM, first compound 0.0316 µM
# [20] = second compound 1 µM, first compound 0.1 µM
# [21] = second compound 1 µM, first compound 0.316 µM
# [22] = second compound 1 µM, first compound 1 µM
# [23] = second compound 1 µM, first compound 3.16 µM
# [24] = second compound 1 µM, first compound 10 µM
# [25] = second compound 3.16 µM, first compound 0.0316 µM
# [26] = second compound 3.16 µM, first compound 0.1 µM
# [27] = second compound 3.16 µM, first compound 0.316 µM
# [28] = second compound 3.16 µM, first compound 1 µM
# [29] = second compound 3.16 µM, first compound 3.16 µM
# [30] = second compound 3.16 µM, first compound 10 µM
# [31] = second compound 10 µM, first compound 0.0316 µM
# [32] = second compound 10 µM, first compound 0.1 µM
# [33] = second compound 10 µM, first compound 0.316 µM
# [34] = second compound 10 µM, first compound 1 µM
# [35] = second compound 10 µM, first compound 3.16 µM
# [36] = second compound 10 µM, first compound 10 µM
# 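Also: spheroids exposed to compounds for seven days.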
# 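For viability, T/C in this document: 100% = DMSO vehicle control viability.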
smiles,measurement,setting,value
CC1COCCN1c1cc(-c2ccnn2C)c2ccnc(-c3ccn[nH]3)c2n1 (stereo not drawn) + Cc1cccc(N(C)C(=O)C2C(O)CCN2c2nc(C)cc(C(F)(F)F)c2C#N)c1,IC50,second compound 0.0316 µM,1.91 µM
same,IC50,second compound 0.1 µM,2.18 µM
same,IC50,second compound 0.316 µM,1.36 µM
same,IC50,second compound 1 µM,1.89 µM
same,IC50,second compound 3.16 µM,1.98 µM
same,IC50,second compound 10 µM,1.79 µM
same,"viability, T/C",[1],97.1%
same,"viability, T/C",[2],83%
same,"viability, T/C",[3],61.4%
same,"viability, T/C",[4],53.4%
same,"viability, T/C",[5],49%
same,"viability, T/C",[6],46.5%
same,"viability, T/C",[7],95.2%
same,"viability, T/C",[8],83.1%
same,"viability, T/C",[9],66.1%
same,"viability, T/C",[10],51.1%
same,"viability, T/C",[11],49.1%
same,"viability, T/C",[12],48.4%
same,"viability, T/C",[13],104%
same,"viability, T/C",[14],83.5%
same,"viability, T/C",[15],65.3%
same,"viability, T/C",[16],46.4%
same,"viability, T/C",[17],49.5%
same,"viability, T/C",[18],46.9%
same,"viability, T/C",[19],89.3%
same,"viability, T/C",[20],77.8%
same,"viability, T/C",[21],59.9%
same,"viability, T/C",[22],46.1%
same,"viability, T/C",[23],52.8%
same,"viability, T/C",[24],49.5%
same,"viability, T/C",[25],97.9%
same,"viability, T/C",[26],78.7%
same,"viability, T/C",[27],66.1%
same,"viability, T/C",[28],48.5%
same,"viability, T/C",[29],49%
same,"viability, T/C",[30],48%
same,"viability, T/C",[31],86.5%
same,"viability, T/C",[32],74.2%
same,"viability, T/C",[33],61.2%
same,"viability, T/C",[34],49.5%
same,"viability, T/C",[35],50.4%
same,"viability, T/C",[36],47.1%
CC1COCCN1c1cc(-c2ccnn2C)c2ccnc(-c3ccn[nH]3)c2n1 (stereo not drawn) + Nc1ccc(C#CCN(C(=O)Cc2ncc(C(F)(F)F)cc2C(F)(F)F)c2ccc(F)cc2)nn1,IC50,second compound 0.0316 µM,> 10 µM
same,IC50,second compound 0.1 µM,> 10 µM
same,IC50,second compound 0.316 µM,> 10 µM
same,IC50,second compound 1 µM,> 10 µM
same,IC50,second compound 3.16 µM,> 10 µM
same,IC50,second compound 10 µM,> 10 µM
same,"viability, T/C",[1],92.9%
same,"viability, T/C",[2],91.8%
same,"viability, T/C",[3],72.9%
same,"viability, T/C",[4],66.8%
same,"viability, T/C",[5],61.6%
same,"viability, T/C",[6],56.3%
same,"viability, T/C",[7],117%
same,"viability, T/C",[8],89.1%
same,"viability, T/C",[9],74.3%
same,"viability, T/C",[10],66.3%
same,"viability, T/C",[11],61.7%
same,"viability, T/C",[12],56.2%
same,"viability, T/C",[13],105%
same,"viability, T/C",[14],92.7%
same,"viability, T/C",[15],71%
same,"viability, T/C",[16],62.5%
same,"viability, T/C",[17],65%
same,"viability, T/C",[18],56.9%
same,"viability, T/C",[19],108%
same,"viability, T/C",[20],83.5%
same,"viability, T/C",[21],73.6%
same,"viability, T/C",[22],65.6%
same,"viability, T/C",[23],59.7%
same,"viability, T/C",[24],51.4%
same,"viability, T/C",[25],102%
same,"viability, T/C",[26],84.3%
same,"viability, T/C",[27],70.3%
same,"viability, T/C",[28],61.1%
same,"viability, T/C",[29],61.8%
same,"viability, T/C",[30],52.2%
same,"viability, T/C",[31],92%
same,"viability, T/C",[32],80.3%
same,"viability, T/C",[33],64.2%
same,"viability, T/C",[34],57.8%
same,"viability, T/C",[35],58.5%
same,"viability, T/C",[36],58%
CCCS(=O)(=O)Nc1ccc(F)c(C(=O)c2c[nH]c3ncc(-c4ccc(Cl)cc4)cc23)c1F + Nc1ccc(C#CCN(C(=O)Cc2ncc(C(F)(F)F)cc2C(F)(F)F)c2ccc(F)cc2)nn1,IC50,second compound 0.0316 µM,> 10 µM
same,IC50,second compound 0.1 µM,> 10 µM
same,IC50,second compound 0.316 µM,> 10 µM
same,IC50,second compound 1 µM,> 10 µM
same,IC50,second compound 3.16 µM,> 10 µM
same,IC50,second compound 10 µM,> 10 µM
same,"viability, T/C",[1],101%
same,"viability, T/C",[2],100%
same,"viability, T/C",[3],102%
same,"viability, T/C",[4],111%
same,"viability, T/C",[5],117%
same,"viability, T/C",[6],88.8%
same,"viability, T/C",[7],112%
same,"viability, T/C",[8],108%
same,"viability, T/C",[9],105%
same,"viability, T/C",[10],106%
same,"viability, T/C",[11],113%
same,"viability, T/C",[12],87.1%
same,"viability, T/C",[13],100%
same,"viability, T/C",[14],108%
same,"viability, T/C",[15],107%
same,"viability, T/C",[16],102%
same,"viability, T/C",[17],106%
same,"viability, T/C",[18],85.4%
same,"viability, T/C",[19],103%
same,"viability, T/C",[20],99.9%
same,"viability, T/C",[21],107%
same,"viability, T/C",[22],102%
same,"viability, T/C",[23],110%
same,"viability, T/C",[24],81.7%
same,"viability, T/C",[25],109%
same,"viability, T/C",[26],100%
same,"viability, T/C",[27],103%
same,"viability, T/C",[28],107%
same,"viability, T/C",[29],111%
same,"viability, T/C",[30],88.8%
same,"viability, T/C",[31],95.1%
same,"viability, T/C",[32],92.8%
same,"viability, T/C",[33],110%
same,"viability, T/C",[34],95.3%
same,"viability, T/C",[35],97.2%
same,"viability, T/C",[36],85.7%
COc1cc(C2c3cc4c(cc3C(OC3OC5COC(C)OC5C(O)C3O)C3COC(=O)C23)OCO4)cc(OC)c1O (stereo not drawn) + Cc1cccc(N(C)C(=O)C2C(O)CCN2c2nc(C)cc(C(F)(F)F)c2C#N)c1,IC50,second compound 0.0316 µM,> 10 µM
same,IC50,second compound 0.1 µM,> 10 µM
same,IC50,second compound 0.316 µM,> 10 µM
same,IC50,second compound 1 µM,> 10 µM
same,IC50,second compound 3.16 µM,> 10 µM
same,IC50,second compound 10 µM,> 10 µM
same,"viability, T/C",[1],104%
same,"viability, T/C",[2],89.7%
same,"viability, T/C",[3],107%
same,"viability, T/C",[4],108%
same,"viability, T/C",[5],92.3%
same,"viability, T/C",[6],81.3%
same,"viability, T/C",[7],96.4%
same,"viability, T/C",[8],92.6%
same,"viability, T/C",[9],102%
same,"viability, T/C",[10],93.4%
same,"viability, T/C",[11],96.1%
same,"viability, T/C",[12],84.7%
same,"viability, T/C",[13],95.7%
same,"viability, T/C",[14],89.8%
same,"viability, T/C",[15],102%
same,"viability, T/C",[16],89.8%
same,"viability, T/C",[17],93.2%
same,"viability, T/C",[18],81.9%
same,"viability, T/C",[19],96.2%
same,"viability, T/C",[20],98.7%
same,"viability, T/C",[21],89.9%
same,"viability, T/C",[22],87.9%
same,"viability, T/C",[23],91.9%
same,"viability, T/C",[24],77.1%
same,"viability, T/C",[25],92.8%
same,"viability, T/C",[26],102%
same,"viability, T/C",[27],93.4%
same,"viability, T/C",[28],91.5%
same,"viability, T/C",[29],89.6%
same,"viability, T/C",[30],80.8%
same,"viability, T/C",[31],98%
same,"viability, T/C",[32],80.5%
same,"viability, T/C",[33],90%
same,"viability, T/C",[34],86.8%
same,"viability, T/C",[35],84.3%
same,"viability, T/C",[36],71.1%
